According to article PMC3959589 (Analytical and bioanalytical chemistry, 2014):

How the values were obtained:
[1] = target: T1, human serum albumin (HSA) (Homo sapiens, UniProt P02768); details: dose-response, 500 nM Red Mega 500, 0.2 mg/mL HSA
plasma protein = details: cited from earlier work
[2] = target: T1, human serum albumin (HSA); assay: biochemical

T1 sequence (P02768 25-609): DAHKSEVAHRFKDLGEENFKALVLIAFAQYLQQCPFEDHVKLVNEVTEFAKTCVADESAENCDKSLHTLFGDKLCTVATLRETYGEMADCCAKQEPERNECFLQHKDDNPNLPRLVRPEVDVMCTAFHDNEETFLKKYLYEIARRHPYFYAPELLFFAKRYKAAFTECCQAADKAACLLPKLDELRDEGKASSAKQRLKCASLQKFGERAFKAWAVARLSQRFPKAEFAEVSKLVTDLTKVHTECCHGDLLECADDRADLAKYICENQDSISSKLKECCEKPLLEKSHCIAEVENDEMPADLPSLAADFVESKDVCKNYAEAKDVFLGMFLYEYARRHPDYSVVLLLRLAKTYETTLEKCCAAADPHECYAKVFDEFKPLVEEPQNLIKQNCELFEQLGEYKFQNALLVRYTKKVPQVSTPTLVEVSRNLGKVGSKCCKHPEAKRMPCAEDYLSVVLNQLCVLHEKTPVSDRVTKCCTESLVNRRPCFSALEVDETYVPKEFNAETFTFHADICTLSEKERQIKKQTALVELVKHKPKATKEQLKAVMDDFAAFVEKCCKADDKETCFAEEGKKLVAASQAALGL

Row | efficacy of inhibition of HSA–Red Mega 500 binding [1] | IC50 [2] [µM] | SMILES | plasma protein binding class (low / medium / high) (plasma protein)
1 | weaker efficacy | 4.4 ± 1.9 | CC/C(=C(/CC)c1ccc(O)cc1)c1ccc(O)cc1 [diethylstilbestrol] | medium
2 | – | – | Cc1c(OCC(F)(F)F)ccnc1C[S+]([O-])c1nc2ccccc2[nH]1 (stereo not drawn) [lansoprazole] | high
3 | – | – | COc1ccc2[nH]c([S+]([O-])Cc3ncc(C)c(OC)c3C)nc2c1 (stereo not drawn) [omeprazole] | high
4 | – | – | CN1C(C(=O)Nc2ccccn2)=C(O)c2ccccc2S1(=O)=O [piroxicam] | high
